Measurements reported in patent US9440957B2, “Compounds and compositions for modulating EGFR Activity” (Novartis AG, priority 2012, dated 2016).
Where two headings read alike, the source gives them in different places.

Experiments:
EGFR(L858R/T790M) = molecular target: T1, EGFR(L858R/T790M) (Homo sapiens, UniProt P00533, L858R/T790M); assay: EGFR biochemical assay (HTRF), IC50 determinations
T1 construct: purchased from Carna (GST-a.a. 669-1210)
Description: All EGFR biochemical assays were carried out by HTRF method. […] The substrate peptide Biotin-TK-peptide was purchased from Cis-Bio. […] All reactions were carried out at room temperature in white ProxiPlate™ 384-well Plus plates (PerkinElmer) and were quenched with 5 μL of 0.2 M EDTA at 60 min. Five L of the detection reagents (2.5 ng PT66K and 0.05 μg SAXL per well) were added, the plates were incubated at room temperature for 1 h and then read in EnVision reader. […] For no-preincubation condition, the compounds were added to the assay solution containing ATP and peptide, and the reaction was initiated by addition of enzyme. For pre-incubation conditions, the compounds were added to the assay solution containing enzyme and peptide, and pre-incubated at room temperature for desired period of time, then the reaction was initiated by addition of ATP.

[1] = molecular target: human EGFR WT (NIH/3T3 cells, EGF-induced) (Homo sapiens, UniProt P00533); assay: EGFR target modulation in engineered NIH/3T3 cell lines (phospho-EGFR Y1068 AlphaLISA), EGFR WT; type: cell-based; details: engineered NIH/3T3 cells, read-out: NIH3T3 IC50 (μM) EGFR (WT)
Chain of human EGFR WT (NIH/3T3 cells, EGF-induced) (P00533 25-1210): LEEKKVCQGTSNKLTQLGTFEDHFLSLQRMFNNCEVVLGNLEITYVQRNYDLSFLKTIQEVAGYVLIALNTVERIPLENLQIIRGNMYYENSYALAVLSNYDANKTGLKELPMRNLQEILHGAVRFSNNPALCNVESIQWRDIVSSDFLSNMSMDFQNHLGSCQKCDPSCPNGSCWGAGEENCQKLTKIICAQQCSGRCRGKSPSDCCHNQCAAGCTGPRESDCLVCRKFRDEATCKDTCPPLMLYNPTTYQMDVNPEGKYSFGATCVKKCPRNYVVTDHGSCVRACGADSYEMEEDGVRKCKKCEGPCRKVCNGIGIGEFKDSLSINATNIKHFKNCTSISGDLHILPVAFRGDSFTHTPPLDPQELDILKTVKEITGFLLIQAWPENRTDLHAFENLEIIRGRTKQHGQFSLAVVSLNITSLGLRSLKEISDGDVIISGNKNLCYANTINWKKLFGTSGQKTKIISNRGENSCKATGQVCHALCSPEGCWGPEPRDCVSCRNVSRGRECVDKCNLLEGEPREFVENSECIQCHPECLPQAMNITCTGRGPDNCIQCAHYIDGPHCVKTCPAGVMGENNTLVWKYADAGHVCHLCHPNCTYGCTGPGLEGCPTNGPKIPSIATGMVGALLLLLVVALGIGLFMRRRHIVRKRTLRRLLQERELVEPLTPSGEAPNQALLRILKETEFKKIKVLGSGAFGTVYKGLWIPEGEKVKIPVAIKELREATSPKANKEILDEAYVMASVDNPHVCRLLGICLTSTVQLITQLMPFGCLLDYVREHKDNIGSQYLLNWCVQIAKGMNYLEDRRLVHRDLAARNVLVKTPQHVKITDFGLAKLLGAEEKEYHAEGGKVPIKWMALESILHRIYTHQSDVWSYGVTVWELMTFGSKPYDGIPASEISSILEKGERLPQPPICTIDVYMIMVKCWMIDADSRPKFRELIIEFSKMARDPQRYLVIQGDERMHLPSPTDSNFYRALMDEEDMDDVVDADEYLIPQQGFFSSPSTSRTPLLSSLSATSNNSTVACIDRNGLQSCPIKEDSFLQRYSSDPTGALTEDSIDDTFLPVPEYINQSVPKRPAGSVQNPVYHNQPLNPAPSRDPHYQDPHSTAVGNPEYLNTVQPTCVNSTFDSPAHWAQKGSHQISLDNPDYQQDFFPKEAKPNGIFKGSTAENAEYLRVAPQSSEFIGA
Description: (§1) EGFR Target Modulation in Engineered NIH/3T3 Cell Lines Tissue Culture.
(§2) The cells were harvested with 0.05% Trypsin/EDTA (Hyclone #SH30236.01), re-suspended in 5% FBS/DMEM Pen/Strep without Puromycin and plated at 9,000 cells per well in 50 μl of media in a 384-well black plate with clear bottoms (Greiner #789068G). The cells were allowed to incubate overnight in a 37° C., 5% CO2 humidified tissue culture incubator. A 12-point test compound curve was prepared by serial diluting a 10 μM stock 1:3 in DMSO in a 384-well compound plate (Greiner #789201L). The serial diluted compounds were transferred to the plate containing cells by using a 50 nl Pin Head device (Perkin Elmer) and the cells were placed back in the incubator for 3 hours. Only the EGFR WT-expressing cells were induced with 50 ng/ml EGF (Preprotech #AF-100-15) for 5 minutes before lysis. […] The plates were shaken at 4° C. for 5 minutes with foil top at maximum speed. […] The plates were sealed with a foil top and frozen at −80° C. and thawed when needed.
(§3) The frozen aliquots were thawed and briefly centrifuged. All antibodies and beads were diluted in 1× AlphaLISA HiBlock Buffer (PE #AL004C). […] Goat anti-total EGFR (R&D Systems #AF231) was added and allowed to equilibrate for 1 hour at room temperature at 1 nM final concentration.
(§4) With these parameters, the IC50's for each compound in each cell line was calculated using non-linear curve fitting analysis.

[2] = molecular target: human EGFR L858R (NIH/3T3 cells) (Homo sapiens, UniProt P00533, L858R); assay: EGFR target modulation in engineered NIH/3T3 cell lines (phospho-EGFR Y1068 AlphaLISA), EGFR L858R; type: cell-based; details: engineered NIH/3T3 cells, read-out: NIH3T3 IC50 (μM) EGFR (L858R)
Chain of human EGFR L858R (NIH/3T3 cells) (P00533 25-1210 L858R): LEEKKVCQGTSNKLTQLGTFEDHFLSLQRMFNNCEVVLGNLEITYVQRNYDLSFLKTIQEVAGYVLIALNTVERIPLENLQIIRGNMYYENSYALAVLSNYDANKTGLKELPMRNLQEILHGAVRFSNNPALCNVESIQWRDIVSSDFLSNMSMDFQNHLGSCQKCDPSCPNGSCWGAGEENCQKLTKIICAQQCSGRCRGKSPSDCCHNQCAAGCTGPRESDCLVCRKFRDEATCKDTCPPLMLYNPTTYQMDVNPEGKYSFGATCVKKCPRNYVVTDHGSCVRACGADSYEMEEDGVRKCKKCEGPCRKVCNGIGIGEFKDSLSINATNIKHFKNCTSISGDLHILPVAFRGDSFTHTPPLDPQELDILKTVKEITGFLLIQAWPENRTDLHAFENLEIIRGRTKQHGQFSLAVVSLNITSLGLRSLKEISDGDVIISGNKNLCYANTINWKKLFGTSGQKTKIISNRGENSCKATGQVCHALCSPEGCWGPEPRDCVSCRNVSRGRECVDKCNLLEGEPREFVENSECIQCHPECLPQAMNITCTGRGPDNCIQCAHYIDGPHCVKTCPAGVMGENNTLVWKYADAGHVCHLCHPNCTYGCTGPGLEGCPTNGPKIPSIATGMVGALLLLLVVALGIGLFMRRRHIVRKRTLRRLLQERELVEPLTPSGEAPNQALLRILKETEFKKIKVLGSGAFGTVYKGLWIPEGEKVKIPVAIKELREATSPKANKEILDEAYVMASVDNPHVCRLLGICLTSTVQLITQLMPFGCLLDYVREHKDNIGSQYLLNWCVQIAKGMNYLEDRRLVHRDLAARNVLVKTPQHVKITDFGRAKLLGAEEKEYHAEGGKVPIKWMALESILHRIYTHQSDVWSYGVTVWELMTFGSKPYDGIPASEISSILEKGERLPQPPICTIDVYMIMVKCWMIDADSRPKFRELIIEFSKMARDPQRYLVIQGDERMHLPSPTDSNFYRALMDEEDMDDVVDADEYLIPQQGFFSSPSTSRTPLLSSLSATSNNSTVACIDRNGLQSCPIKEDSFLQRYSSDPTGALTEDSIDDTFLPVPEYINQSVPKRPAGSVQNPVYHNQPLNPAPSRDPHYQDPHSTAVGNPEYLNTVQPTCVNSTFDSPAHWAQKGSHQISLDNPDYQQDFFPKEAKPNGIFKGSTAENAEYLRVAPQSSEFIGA
Description: as §1, §2, §3, §4

[3] = molecular target: human EGFR L858R/T790M (NIH/3T3 cells) (Homo sapiens, UniProt P00533, L858R/T790M); assay: EGFR target modulation in engineered NIH/3T3 cell lines (phospho-EGFR Y1068 AlphaLISA), EGFR L858R/T790M; type: cell-based; details: engineered NIH/3T3 cells, read-out: NIH3T3 IC50 (μM) EGFR (L858R/T790M)
Chain of human EGFR L858R/T790M (NIH/3T3 cells) (P00533 25-1210 T790M/L858R): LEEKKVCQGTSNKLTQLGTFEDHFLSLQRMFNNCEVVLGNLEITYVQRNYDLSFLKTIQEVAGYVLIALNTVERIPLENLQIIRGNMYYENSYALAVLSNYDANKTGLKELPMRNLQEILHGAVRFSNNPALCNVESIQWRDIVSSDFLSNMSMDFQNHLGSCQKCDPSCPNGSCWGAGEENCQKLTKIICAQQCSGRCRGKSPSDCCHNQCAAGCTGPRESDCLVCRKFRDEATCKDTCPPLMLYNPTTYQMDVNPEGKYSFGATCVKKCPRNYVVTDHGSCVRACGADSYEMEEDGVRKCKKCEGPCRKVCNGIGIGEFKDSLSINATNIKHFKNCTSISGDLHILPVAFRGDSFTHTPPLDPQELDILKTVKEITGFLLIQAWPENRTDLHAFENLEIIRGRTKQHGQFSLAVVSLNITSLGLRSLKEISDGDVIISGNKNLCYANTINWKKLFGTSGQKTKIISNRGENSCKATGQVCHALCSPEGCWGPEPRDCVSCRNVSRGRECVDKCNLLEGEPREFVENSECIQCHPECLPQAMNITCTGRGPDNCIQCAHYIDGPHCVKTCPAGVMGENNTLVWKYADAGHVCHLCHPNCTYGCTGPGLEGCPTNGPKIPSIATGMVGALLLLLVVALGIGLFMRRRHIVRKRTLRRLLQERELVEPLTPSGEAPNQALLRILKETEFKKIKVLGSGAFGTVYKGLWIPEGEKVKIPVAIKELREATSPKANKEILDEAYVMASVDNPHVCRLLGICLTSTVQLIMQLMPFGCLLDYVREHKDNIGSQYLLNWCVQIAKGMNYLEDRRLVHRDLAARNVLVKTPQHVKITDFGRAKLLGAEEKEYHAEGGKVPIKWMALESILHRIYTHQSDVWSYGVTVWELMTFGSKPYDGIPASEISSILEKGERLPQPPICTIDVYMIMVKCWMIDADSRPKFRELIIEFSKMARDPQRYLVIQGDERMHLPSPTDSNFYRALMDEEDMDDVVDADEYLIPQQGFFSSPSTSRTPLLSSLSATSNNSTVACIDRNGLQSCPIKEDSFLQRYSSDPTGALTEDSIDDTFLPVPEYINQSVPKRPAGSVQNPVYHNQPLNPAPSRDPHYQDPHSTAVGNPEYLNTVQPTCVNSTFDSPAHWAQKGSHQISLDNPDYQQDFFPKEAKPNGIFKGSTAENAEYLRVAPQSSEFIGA
Description: as §1, §2, §3, §4

[4] = EGFR (L858R/T790M) with 90 min pre-incubation, read-out: IC50 (μM) Column B
[5] = EGFR (L858R/T790M) with no pre-incubation, read-out: IC50 (μM) Column A

T1 sequence (P00533 669-1210 T790M/L858R): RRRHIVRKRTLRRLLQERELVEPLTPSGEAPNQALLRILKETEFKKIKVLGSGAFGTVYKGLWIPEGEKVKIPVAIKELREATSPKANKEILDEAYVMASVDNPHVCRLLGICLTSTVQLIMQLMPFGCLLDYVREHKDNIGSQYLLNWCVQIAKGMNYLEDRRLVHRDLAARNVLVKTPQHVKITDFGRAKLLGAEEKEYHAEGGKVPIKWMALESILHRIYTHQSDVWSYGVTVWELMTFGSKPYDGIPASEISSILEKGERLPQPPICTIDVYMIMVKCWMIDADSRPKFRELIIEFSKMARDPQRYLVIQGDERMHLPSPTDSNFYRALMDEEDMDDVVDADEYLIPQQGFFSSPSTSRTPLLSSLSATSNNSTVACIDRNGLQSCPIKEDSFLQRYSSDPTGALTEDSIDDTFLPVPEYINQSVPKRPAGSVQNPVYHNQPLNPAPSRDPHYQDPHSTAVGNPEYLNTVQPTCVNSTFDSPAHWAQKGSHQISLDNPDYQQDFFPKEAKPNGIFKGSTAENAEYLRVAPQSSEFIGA

Row | IC50 (EGFR(L858R/T790M); [4]) [µM] | IC50 (EGFR(L858R/T790M); [5]) [µM] | IC50 [1] [µM] | IC50 [2] [µM] | IC50 [3] [µM] | Structure (SMILES)
1 | 0.007 | 0.198 | 1.01 | 0.033 | 0.042 | C=C(CN1CCCC1)C(=O)N1CCCC[C@@H](n2c(NC(=O)c3ccnnc3)nc3cccc(C)c32)C1 [Example 17-91]
2 | < 0.001 | 0.011 | 0.47 | 0.019 | 0.008 | CN(C)C/C=C/C(=O)N1CCCCC(n2c(NC(=O)c3cccc(C(F)(F)F)c3)nc3cc(CO)cc(C#N)c32)C1 (centres unmarked) [Example 17-116]
3 | < 0.001 | 0.007 | 0.186 | 0.006 | 0.002 | C=CC(=O)N1CCCC[C@@H](n2c(NC(=O)c3ccccc3)nc3cc(COCCOC)cc(C)c32)C1 [Example 17-128]
4 | < 0.001 | 0.009 | 0.086 | 0.005 | 0.009 | Cc1cccc2nc(NC(=O)c3ccnc(N(C)C)c3)n(C3CCCCN(C(=O)/C=C/CN(C)C)C3)c12 (centres unmarked) [Example 17-50]
5 | 0.003 | 0.068 | > 7.6 | 0.087 | 0.013 | C=CC(=O)N1CCC[C@@H](n2c(NC(=O)c3cccc(C(F)(F)F)c3)nc3cc(CN4CCC(F)(F)C4)ccc32)C1 [Example 17-125]
6 | 0.038 | 1.05 | > 10 | 0.53 | 0.221 | Cc1cccc2nc(NC(=O)c3ccccn3)n(C3CCCCN(C(=O)/C=C/CN(C)C)C3)c12 (centres unmarked) [Example 17-34]
7 | 0.011 | 0.106 | 1.98 | 0.016 | 0.004 | C=CC(=O)N1CCCC[C@@H](n2c(NC(=O)c3cccc(C(F)(F)F)c3)nc3cccc(C(=O)OC)c32)C1 [Example 17-96]
8 | < 0.001 | 0.127 | > 10 | 0.259 | 0.016 | C=CC(=O)N1CCC[C@@H](n2c(NC(=O)c3cccc(C(F)(F)F)c3)nc3cc(CO)ccc32)C1 [Example 17-121]
9 | 0.043 | 0.94 | 7.9 | 1.64 | 0.181 | C=CC(=O)N1CCCCC(n2c(NC(=O)c3ccccc3)nc3cccc(C(=O)N4C[C@@H](O)[C@H](O)C4)c32)C1 (some centres unmarked) [Example 17-140]
10 | 0.071 | 0.41 |  |  |  | C=CC(=O)N1CCC[C@H](n2c(NC(=O)c3cccc(C(F)(F)F)c3)nc3cc(C)ccc32)C1 [4, 21-5]
11 | 0.38 | 0.32 |  |  |  | C=CC(=O)N1CCCC(n2c(NC(=O)c3cccc(C(F)(F)F)c3)nc3cc(C)ccc32)CC1 (centres unmarked) [Example 17-107]
12 | < 0.001 | 0.003 | 0.038 | 0.003 |  | Cc1cccc2nc(NC(=O)c3ccn4cncc4c3)n(C3CCCCN(C(=O)/C=C/CN(C)C)C3)c12 (centres unmarked) [Example 17-63]
13 | 0.001 | 0.018 | 1.29 | 0.041 | 0.006 | C=CC(=O)N1CCCC[C@@H](n2c(NC(=O)c3ccccc3)nc3cccc(CN(C)CCS(C)(=O)=O)c32)C1 [Example 17-133]
14 | 0.285 | 6.6 | > 10 | 0.67 | 0.84 | C=CC(=O)N1CCCC(n2c(NC(=O)c3cccc(C(F)(F)F)c3)nc3c2CN(C)CC3)C1 (centres unmarked) [Example 17-173]
15 | < 0.001 | 0.016 | 0.75 | 0.019 | 0.005 | Cc1cccc2nc(NC(=O)c3cccc(Cl)c3F)n(C3CCCCN(C(=O)/C=C/CN(C)C)C3)c12 (centres unmarked) [Example 17-31]
16 | < 0.001 | < 0.001 |  |  |  | Cc1cccc2nc(NC(=O)c3ccnc(C(F)(F)F)c3)n([C@@H]3CCCCN(C(=O)/C=C/CN(C)C)C3)c12 [8, 21-2]
17 | 0.04 | 0.39 | 8.4 | 0.158 | 0.209 | CC1=C(C(=O)N2CCCC[C@@H](n3c(NC(=O)c4ccnnc4)nc4cccc(C)c43)C2)S(=O)(=O)CCO1 [Example 17-88]
18 | 0.316 | 2.4 | 9.9 | 1.86 | 0.16 | C=CC(=O)N1CCCC(n2c(NC(=O)c3cccc(C(F)(F)F)c3)nc3c2CN(S(C)(=O)=O)CC3)C1 (centres unmarked) [Example 17-171]

Row | IC50 (EGFR(L858R/T790M); [4]) [µM] | IC50 (EGFR(L858R/T790M); [5]) [µM] | IC50 [1] [µM] | IC50 [2] [µM] | IC50 [3] [µM] | Structure (SMILES)
19 | < 0.001 | 0.014 | 0.206 | 0.007 | 0.004 | Cc1cccc2nc(NC(=O)c3ccc(F)c(Cl)c3F)n(C3CCCCN(C(=O)/C=C/CN(C)C)C3)c12 (centres unmarked) [Example 17-32]
20 | 0.56 | 2.01 | > 10 | 3.2 | 0.49 | C=CC(=O)N1CCOCC(n2c(NC(=O)c3cccc(C(F)(F)F)c3)nc3cccc(C)c32)C1 (single isomer, unassigned) [Example 21-7A]
21 | 0.001 | 0.029 | 0.33 | 0.006 | 0.027 | Cc1cccc2nc(NC(=O)c3ccn(C)c(=O)c3)n(C3CCCCN(C(=O)/C=C/CN(C)C)C3)c12 (centres unmarked) [Example 17-49]
22 | 0.01 | 0.189 | 6 | 0.7 | 0.244 | Cc1cccc2nc(NC(=O)c3cccc(C(F)(F)F)c3)n([C@H]3COCCN(C(=O)/C=C/CN(C)C)C3)c12 [Example 17-6]
23 | < 0.001 | 0.005 | 0.32 | 0.007 | 0.004 | Cc1cccc2nc(NC(=O)c3cccc(F)c3)n(C3CCCCN(C(=O)/C=C/CN(C)C)C3)c12 (centres unmarked) [Example 17-21]
24 | < 0.001 | < 0.001 | 0.016 | 0.001 | < 0.001 | Cc1cccc2nc(NC(=O)c3ccnc(Cl)c3)n([C@@H]3CCCCN(C(=O)/C=C/CN(C)C)C3)c12 [Example 17-73]
25 | 0.006 | 0.117 | 1.92 | 0.093 | 0.049 | Cc1cccc2nc(NC(=O)c3cnccn3)n(C3CCCCN(C(=O)/C=C/CN(C)C)C3)c12 (centres unmarked) [Example 17-38]
26 | 0.048 | 1.95 |  | 0.47 | 0.65 | Cc1cccc2nc(NC(=O)c3cn4ccsc4n3)n(C3CCCCN(C(=O)/C=C/CN(C)C)C3)c12 (centres unmarked) [Example 17-51]
27 | < 0.001 | 0.006 | 0.89 | 0.009 | 0.021 | Cc1cc(C(=O)Nc2nc3cccc(Cl)c3n2[C@@H]2CCCCN(C(=O)/C=C/CN3CC[C@H](O)C3)C2)ccn1 [Example 3-7]
28 | 0.058 | 0.84 |  |  |  | C=CC(=O)N1CCC(n2c(NC(=O)c3cccc(C(F)(F)F)c3)nc3cc(C)ccc32)C1 (centres unmarked) [Example 17-98]
29 | 0.002 | 0.1 |  |  |  | C=CC(=O)N1CCC[C@@H](n2c(NC(=O)c3cccc(C(F)(F)F)c3)nc3cc(C)ccc32)C1 [17-105, 21-6]
30 | 0.097 | 1.22 |  |  |  | C=CC(=O)N1CC(n2c(NC(=O)c3cccc(C(F)(F)F)c3)nc3cc(C)ccc32)C1 [Example 17-99]
31 | 0.4 | 0.204 |  |  |  | C=CC(=O)N1CCC(n2c(NC(=O)c3cccc(C(F)(F)F)c3)nc3cc(C)ccc32)CC1 [Example 17-97]
32 | 0.193 | 0.99 |  |  |  | C/C=C/C(=O)N1CC(n2c(NC(=O)c3cccc(C(F)(F)F)c3)nc3cc(C)ccc32)C1 [Example 17-101]
33 |  |  |  | 0.34 | 0.026 | C=CC(=O)N1CCCC(n2c(NC(=O)c3cccc(C(F)(F)F)c3)nc3cc(C)ccc32)C1 (centres unmarked) [Example 17-100]
34 |  |  | 0.012 | 0.002 | 0.002 | Cc1cccc2nc(NC(=O)c3ccnc(-n4cnnn4)c3)n(C3CCCCN(C(=O)/C=C/CN(C)C)C3)c12 (centres unmarked) [Example 17-60]
35 | 0.006 | 0.14 | 2.5 | 0.234 |  | Cc1ncccc1C(=O)Nc1nc2cccc(C)c2n1C1CCCCN(C(=O)/C=C/CN(C)C)C1 (centres unmarked) [Example 17-62]
